Reference: DBAASP
Converted amounts (≈) assume the structure as drawn. Each block holds one compound with its values, some of them ahead of it.

How the values were obtained:
Experiment in all cases: ≥ marks a high value that may be exact or a test limit, other limits are often not marked, values filed in µg/mL are converted to µM
[1] = test system: Staphylococcus aureus USA 300
[2] = test system: Staphylococcus aureus UAMS-1
[3] = test system: Escherichia coli ATCC 25922
[4] = test system: Pseudomonas aeruginosa PAO1
[5] = test system: Klebsiella pneumoniae ATCC 13883
[6] = test system: Staphylococcus aureus USA 400
[7] = test system: Candida tropicalis ATCC 13803
[8] = test system: Candida albicans ATCC 10231
[9] = test system: Staphylococcus epidermidis 1457
[10] = test system: Staphylococcus aureus Newman
[11] = test system: Candida glabrata ATCC 2001
[12] = test system: Staphylococcus aureus MU50
[13] = test system: Staphylococcus aureus USA 200
[14] = test system: Bacillus subtilis 168
[15] = test system: Escherichia coli ATCC 2592
[16] = test system: Cryptococcus neoformans ATCC 32045
[17] = test system: Staphylococcus aureus ATCC 33591
[18] = test system: Pseudomonas aeruginosa ATCC 10145
[19] = test system: Escherichia coli K12 MG1655
[20] = test system: Bordetella bronchiseptica MTCC 6837
[21] = test system: Klebsiella pneumoniae MTCC 7407
[22] = test system: Enterococcus faecalis MTCC 439
[23] = test system: Alkalihalobacillus alcalophilus MTCC 860
[24] = test system: Proteus mirabilis MTCC 3158
[25] = test system: Shigella boydii MTCC 11947
[26] = test system: Acinetobacter baumannii MTCC 9829
[27] = test system: Klebsiella oxytoca MTCC 2275
[28] = test system: Proteus vulgaris MTCC 1771
[29] = test system: Corynebacterium glutamicum MTCC 2679
[30] = test system: Pluralibacter gergoviae MTCC 3826
[31] = test system: Vibrio cholerae MTCC 3904
[32] = test system: Staphylococcus aureus MTCC 3160
[33] = test system: Klebsiella aerogenes MTCC 111
[34] = test system: Stenotrophomonas maltophilia MTCC 1890
[35] = test system: Haemophilus influenzae MTCC 621
[36] = test system: Citrobacter koseri MTCC 1657
[37] = test system: Salmonella enterica subsp. enterica serovar Typhimurium ATCC 14028
[38] = test system: Shigella flexneri MTCC 1457
[39] = test system: Pseudomonas aeruginosa MTCC 3542
[40] = test system: Salmonella enterica MTCC 9844
[41] = test system: Citrobacter freundii MTCC 1658
[42] = test system: Staphylococcus haemolyticus MTCC 3383
[43] = test system: Alcaligenes faecalis MTCC 1937
[44] = test system: Salmonella enterica subsp. enterica serovar Enteritidis MH91989
[45] = test system: Escherichia coli O157:H7
[46] = test system: Salmonella typhimurium SL1344
[47] = test system: Escherichia coli JW0013
[48] = test system: Escherichia coli J2210
[49] = test system: Escherichia coli MC1061
[50] = test system: Escherichia coli JJ2487
[51] = test system: Bacillus subtilis ATCC 6633
[52] = test system: Salmonella enterica subsp. enterica serovar Enteritidis BNCC 103134
[53] = test system: Staphylococcus aureus ATCC 25923

Compound: C[C@H](NC(=O)[C@H](Cc1ccccc1)NC(=O)[C@H](CCCCN)NC(=O)[C@H](CCCCN)NC(=O)[C@H](C)NC(=O)[C@H](Cc1ccccc1)NC(=O)[C@H](CCCCN)NC(=O)[C@H](CCCCN)NC(=O)[C@H](C)NC(=O)[C@H](Cc1ccccc1)NC(=O)[C@H](CCCCN)NC(=O)[C@H](CCCCN)NC(=O)[C@H](C)NC(=O)[C@H](Cc1ccccc1)NC(=O)[C@H](CCCCN)NC(=O)[C@H](CCCCN)NC(=O)[C@H](C)NC(=O)[C@H](Cc1ccccc1)NC(=O)[C@H](CCCCN)NC(=O)[C@H](CCCCN)NC(=O)[C@H](C)NC(=O)[C@H](Cc1ccccc1)NC(=O)[C@H](CCCCN)NC(=O)[C@H](CCCCN)NC(=O)[C@H](C)NC(=O)[C@H](Cc1ccccc1)NC(=O)[C@@H](N)CCCCN)C(=O)N[C@@H](CCCCN)C(=O)O [KFAKKFAKKFAKKFAKKFAKKFAKKFAK]
MIC [15]: 13.3 µM (≈ 44.5 µg/mL) | MIC [16]: 13.3 µM (≈ 44.5 µg/mL) | MIC [8]: 33.5 µM (≈ 112 µg/mL) | MIC [17]: ≥ 74.8 µM | MIC [18]: 4.79 µM (≈ 16 µg/mL)

Compound: CC(C)C[C@H](NC(=O)[C@H](CCCCN)NC(=O)[C@@H]1CCCN1C(=O)[C@H](CC(C)C)NC(=O)[C@H](CO)NC(=O)[C@H](CCCN=C(N)N)NC(=O)[C@H](C)NC(=O)[C@H](CCCCN)NC(=O)[C@H](CCCCN)NC(=O)[C@H](Cc1ccccc1)NC(=O)[C@H](Cc1ccccc1)NC(=O)[C@H](CCCCN)NC(=O)[C@H](CCCCN)NC(=O)[C@H](Cc1c[nH]c2ccccc12)NC(=O)[C@@H](N)CO)C(=O)N[C@@H](Cc1ccccc1)C(=O)O [SWKKFFKKARSLPKLF]
MIC [19]: 1.99 µM (≈ 4 µg/mL) | MIC [20]: 0.497 µM (≈ 1 µg/mL) | MIC [21]: 15.9 µM (≈ 32 µg/mL) | MIC [22]: ≥ 63.6 µM | MIC [23]: 15.9 µM (≈ 32 µg/mL) | MIC [24]: ≥ 63.6 µM | MIC [25]: 0.994 µM (≈ 2 µg/mL) | MIC [26]: 1.99 µM (≈ 4 µg/mL) | MIC [27]: 7.95 µM (≈ 16 µg/mL) | MIC [28]: 7.95 µM (≈ 16 µg/mL) | MIC [29]: 0.994 µM (≈ 2 µg/mL) | MIC [30]: 31.8 µM (≈ 64 µg/mL) | MIC [31]: 31.8 µM (≈ 64 µg/mL) | MIC [32]: ≥ 63.6 µM | MIC [33]: 7.95 µM (≈ 16 µg/mL) | MIC [34]: 7.95 µM (≈ 16 µg/mL) | MIC [35]: 0.994 µM (≈ 2 µg/mL) | MIC [36]: 3.98 µM (≈ 8 µg/mL) | MIC [37]: 3.98 µM (≈ 8 µg/mL) | MIC [38]: 1.99 µM (≈ 4 µg/mL) | MIC [39]: 15.9 µM (≈ 32 µg/mL) | MIC [40]: 3.98 µM (≈ 8 µg/mL) | MIC [41]: 15.9 µM (≈ 32 µg/mL) | MIC [42]: 3.98 µM (≈ 8 µg/mL) | MIC [43]: 31.8 µM (≈ 64 µg/mL)

Further lines, results first:

MIC [1]: 6.3 µM (≈ 9.09 µg/mL) | MIC [2]: 25 µM (≈ 36.1 µg/mL) | MIC [3]: > 50 µM | MIC [4]: > 50 µM | MIC [5]: ≥ 50 µM | MIC [6]: 6.25 µM (≈ 9.02 µg/mL) | MIC [7]: 6.2 µM (≈ 8.95 µg/mL) | MIC [8]: 25 µM (≈ 36.1 µg/mL) | MIC [9]: 6.3 µM (≈ 9.09 µg/mL) | MIC [10]: 12.5 µM (≈ 18 µg/mL) | MIC [11]: 25 µM (≈ 36.1 µg/mL) | MIC [12]: 12.5 µM (≈ 18 µg/mL) | MIC [13]: 6.25 µM (≈ 9.02 µg/mL) | MIC [14]: 12.5 µM (≈ 18 µg/mL)
Compound: CC[C@H](C)[C@H](NC(=O)[C@H](C)NC(=O)[C@H](CO)NC(=O)[C@H](CC(C)C)NC(=O)[C@@H](N)Cc1ccccc1)C(=O)N[C@H](C(=O)N[C@@H](CO)C(=O)N[C@H](C(=O)N[C@@H](CC(C)C)C(=O)NCC(=O)N[C@@H](CCCCN)C(=O)N[C@@H](Cc1ccccc1)C(=O)N[C@@H](Cc1ccccc1)C(N)=O)[C@@H](C)CC)[C@@H](C)O [FLSAITSILGKFF]

MIC [44]: 0.249 µM (≈ 0.6 µg/mL) | MIC [45]: 0.998 µM (≈ 2.4 µg/mL) | MIC [46]: 0.249 µM (≈ 0.6 µg/mL) | MIC [47]: 0.249 µM (≈ 0.6 µg/mL) | MIC [48]: 0.125 µM (≈ 0.3 µg/mL) | MIC [49]: 0.0623 µM (≈ 0.15 µg/mL) | MIC [50]: 0.328 µM (≈ 0.79 µg/mL)
Compound: CC[C@H](C)[C@H](NC(=O)[C@H](CCCN=C(N)N)NC(=O)[C@H](CCCN=C(N)N)NC(=O)[C@@H]1CCCN1C(=O)[C@@H]1CCCN1C(=O)[C@H](CCCN=C(N)N)NC(=O)[C@@H]1CCCN1C(=O)[C@H](CCCN=C(N)N)NC(=O)[C@@H]1CCCN1C(=O)[C@H](CCCCN)NC(=O)[C@H](Cc1ccc(O)cc1)NC(=O)[C@@H]1CCCN1C(=O)[C@@H]1CCCN1C(=O)[C@H](CCCCN)NC(=O)[C@H](CC(=O)O)NC(=O)[C@@H](N)C(C)C)C(=O)N[C@@H](Cc1ccc(O)cc1)C(=O)N[C@@H](CC(N)=O)C(=O)N[C@@H](CCCN=C(N)N)C(N)=O [VDKPPYKPRPRPPRRIYNR]

MIC [3]: 200 µM (≈ 148 µg/mL) | MIC [51]: ≥ 300 µM | MIC [52]: ≥ 350 µM | MIC [53]: 300 µM (≈ 221 µg/mL)
Compound: C[C@@H](O)[C@H](NC(=O)[C@H](Cc1ccccc1)NC(=O)[C@H](CO)NC(=O)[C@@H](NC(=O)[C@@H]1CCCN1C(=O)[C@@H](N)Cc1c[nH]c2ccccc12)[C@@H](C)O)C(=O)O [WPTSFT]
